Values joined by “and” are separate entries in the source; they are usually repeats but may differ in a detail not shown here. Identical values can stand only once.
Test system: 994946-033-R-J1-PDC complex spheroid viability
Experiment: Anticancer human tumor 994946-033-R-J1-PDC patient-derived melanoma cell line growth inhibition [POLQ]
Settings: for viability, T/C: stronger effect = lower value
Experimental: Multicellular complex tumor spheroid response to Polymerase (POL) inhibitors (novobiocin, ART-558, RP6685) in combination with a variety of drugs and investigational agents in selected tumor cell lines
The POL inhibitors (novobiocin, ART-558, and RP6685) were evaluated both individually and in combination with standard of care and investigational anticancer small molecules within a complex spheroid model of solid tumors. . Complex spheroids include a stromal component modeled by human endothelial cells (HUVEC) and fibroblasts modeled by human mesenchymal stem cells (MSCs). The concentration ranges selected for each drug and investigational agent were based upon clinically achievable concentrations if the clinical Cmax of the agent was known.
Compounds. The drugs and investigational agents: novobiocin (NSC847541), ART-558 (NSC835418), RP-6685 (NSC848927), peposertib (NSC802822), ceralasertib (NSC780249), elimusertib (NSC800525), camonsertib (NSC841442), AZD-1390 (NSC803789), olaparib (NSC753686), talazoparib (NSC767125), rucaparib (NSC756644), sotorasib (NSC818433), MRTX-1133 (NSC836407), SN-38 (NSC673596), topotecan (NSC609699), epotoside (NSC141540), doxorubicin (NSC123127), gemcitabine (NSC613327), 5-fluorouracil (NSC19893), paclitaxel (NSC125973), vemurafenib (NSC761431), MSA-2 (NSC828583), SN-011 (NSC837082), adavosertib (NSC754352), prexasertib (NSC758257), carboplatin (NSC241240) and oxaliplatin (NSC266046), were obtained from the National Cancer Institute (NCI) Developmental Therapeutics Program Chemical Repository (21). The FDA-approved anticancer drug set is available from the Developmental Therapeutics Program at https://dtp.cancer.gov/organization/dscb/obtaining/. […] The stock solutions were prepared in dimethyl sulfoxide (DMSO, Sigma-Aldrich, St. Louis, MO, cat. D2650), except for the platinum compounds which were prepared in saline (Quality Biological, Gaithersburg, MD, cat. 114-055-101), at 800-fold the tested concentration and stored at -70 degrees C prior to their use. All drugs and investigational agents were tested over a range starting from a high concentration at or near the clinical Cmax and decreasing in half-log increments. If the clinical Cmax for an agent had not been determined, the highest concentration tested was 10 microM, except for SN-38, which was tested at a high concentration of 1 microM.
Cell Culture. All cells were maintained in an incubator at 37 degrees C and 5% CO2 with 95% humidity. The PDC lines were cultured according to standard operating procedures established by the NCI PDMR (https://pdmr.cancer.gov). Table 3 of the manuscript, lists the cell lines along with the number of the three cell types plated to form the mct-spheroids and media for tumor cell growth. After thawing, all PDC lines, except 997537-175-T-J1-PDC and 415267-285-R-J2-PDC, were cultured in Matrigel-coated flasks prepared with a working solution of 1X Ham's F-12 nutrient mix, without supplementation (Thermo Fisher Scientific, cat. 11765054), 100 U/mL penicillin-streptomycin (Thermo Fisher Scientific, cat. 15140122), and 2.5% Matrigel (Corning Inc., Corning, NY, cat. 354248) for the first three passages. The two PDC lines 997537-175-T-J1-PDC and 415267-285-R-J2-PDC were cultured on uncoated flasks. The 857933-349-R-J2-PDC line was cultured in 6C/Colon 1B media containing advanced DMEM/F-12 (Thermo Fisher Scientific, cat. 12634028), 10 mM HEPES (Thermo Fisher Scientific, cat. 15630080), 1X GlutaMAX supplement (Thermo Fisher Scientific, cat. 35050061), 0.1 mg/mL primocin (InvivoGen, San Diego, CA, cat. ant-pm-2), 10% defined fetal bovine serum, heat inactivated (HyClone Laboratories Inc., Logan, UT, cat. SH30070.03HI), 50% L-WRN conditioned media (ATCC, cat. CRL-3276), 1.25 mM N-Acetyl-L-cysteine (Sigma-Aldrich, cat. A9165), 10 mM nicotinamide (Sigma-Aldrich, cat. N0636), 1X B-27 supplement (Thermo Fisher Scientific, cat. 17504044), 1X N-2 supplement (Thermo Fisher Scientific, cat. […]

[1] = curve of first compound, second compound 0.0316 µM
[2] = curve of first compound, second compound 0.1 µM
[3] = curve of first compound, second compound 0.316 µM
[4] = curve of first compound, second compound 1 µM
[5] = curve of first compound, second compound 3.16 µM
[6] = curve of first compound, second compound 10 µM
[7] = second compound 0.0316 µM, first compound 0.0316 µM
[8] = second compound 0.0316 µM, first compound 0.1 µM
[9] = second compound 0.0316 µM, first compound 0.316 µM
[10] = second compound 0.0316 µM, first compound 1 µM
[11] = second compound 0.0316 µM, first compound 3.16 µM
[12] = second compound 0.0316 µM, first compound 10 µM
[13] = second compound 0.1 µM, first compound 0.0316 µM
[14] = second compound 0.1 µM, first compound 0.1 µM
[15] = second compound 0.1 µM, first compound 0.316 µM
[16] = second compound 0.1 µM, first compound 1 µM
[17] = second compound 0.1 µM, first compound 3.16 µM
[18] = second compound 0.1 µM, first compound 10 µM
[19] = second compound 0.316 µM, first compound 0.0316 µM
[20] = second compound 0.316 µM, first compound 0.1 µM
[21] = second compound 0.316 µM, first compound 0.316 µM
[22] = second compound 0.316 µM, first compound 1 µM
[23] = second compound 0.316 µM, first compound 3.16 µM
[24] = second compound 0.316 µM, first compound 10 µM
[25] = second compound 1 µM, first compound 0.0316 µM
[26] = second compound 1 µM, first compound 0.1 µM
[27] = second compound 1 µM, first compound 0.316 µM
[28] = second compound 1 µM, first compound 1 µM
[29] = second compound 1 µM, first compound 3.16 µM
[30] = second compound 1 µM, first compound 10 µM
[31] = second compound 3.16 µM, first compound 0.0316 µM
[32] = second compound 3.16 µM, first compound 0.1 µM
[33] = second compound 3.16 µM, first compound 0.316 µM
[34] = second compound 3.16 µM, first compound 1 µM
[35] = second compound 3.16 µM, first compound 3.16 µM
[36] = second compound 3.16 µM, first compound 10 µM
[37] = second compound 10 µM, first compound 0.0316 µM
[38] = second compound 10 µM, first compound 0.1 µM
[39] = second compound 10 µM, first compound 0.316 µM
[40] = second compound 10 µM, first compound 1 µM
[41] = second compound 10 µM, first compound 3.16 µM
[42] = second compound 10 µM, first compound 10 µM
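Further: spheroids exposed to drugs for 7 days.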
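Wherever viability, T/C is given: 100% = DMSO vehicle treated spheroids.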

CC(C)n1c(=O)n(C)c2cnc3cc(F)c(-c4ccc(OCCCN5CCCCC5)nc4)cc3c21 + Nc1ccc(C#CCN(C(=O)Cc2ncc(C(F)(F)F)cc2C(F)(F)F)c2ccc(F)cc2)nn1
IC50 [1]: > 10 µM
IC50 [2]: > 10 µM
IC50 [3]: > 10 µM
IC50 [4]: 8.97 µM
IC50 [5]: 8.25 µM
IC50 [6]: > 10 µM
viability, T/C [7]: 82.2%
viability, T/C [8]: 103%
viability, T/C [9]: 80.6%
viability, T/C [10]: 98.5%
viability, T/C [11]: 83.5%
viability, T/C [12]: 66.4%
viability, T/C [13]: 113%
viability, T/C [14]: 95.3%
viability, T/C [15]: 52.7%
viability, T/C [16]: 84.7%
viability, T/C [17]: 77.5%
viability, T/C [18]: 67.5%
viability, T/C [19]: 88.9%
viability, T/C [20]: 80.9%
viability, T/C [21]: 94.7%
viability, T/C [22]: 101%
viability, T/C [23]: 68.9%
viability, T/C [24]: 59.6%
viability, T/C [25]: 76.5%
viability, T/C [26]: 103%
viability, T/C [27]: 98%
viability, T/C [28]: 88.8%
viability, T/C [29]: 93.6%
viability, T/C [30]: 45.6%
viability, T/C [31]: 96.6%
viability, T/C [32]: 97.7%
viability, T/C [33]: 97.6%
viability, T/C [34]: 115%
viability, T/C [35]: 85%
viability, T/C [36]: 43%
viability, T/C [37]: 103%
viability, T/C [38]: 67.7%
viability, T/C [39]: 74.4%
viability, T/C [40]: 82%
viability, T/C [41]: 87.9%
viability, T/C [42]: 70.8%

COc1ccc([C@@H](O)c2cc(-c3ncnc4cc(N5CCOCC5)ccc34)c(F)cc2Cl)nn1
viability, T/C (compound 0.0316 µM): 115% and 94.1% and 79.4%
viability, T/C (compound 0.1 µM): 91.2% and 92.7% and 91%
viability, T/C (compound 0.316 µM): 81.5% and 95.9% and 99.5%
viability, T/C (compound 1 µM): 49.6% and 78.9% and 67.1%
viability, T/C (compound 3.16 µM): 59.4% and 74.8% and 59%
viability, T/C (compound 10 µM): 43.6% and 27.3% and 43.8%
IC50 (curve of compound): 4.11 µM and 5.57 µM and > 10 µM

CC1COCCN1c1cc(C2(S(C)(=N)=O)CC2)nc(-c2ccnc3[nH]ccc23)n1 (configuration not stated)
viability, T/C (compound 0.0316 µM): 106% and 105% and 113%
viability, T/C (compound 0.1 µM): 112% and 97.5% and 98.7%
viability, T/C (compound 0.316 µM): 90.5% and 86.8% and 93.9%
viability, T/C (compound 1 µM): 70.6% and 57.9% and 68.7%
viability, T/C (compound 3.16 µM): 42% and 44.5% and 52%
viability, T/C (compound 10 µM): 56.6% and 52.9% and 32.3%
IC50 (curve of compound): 8.06 µM and 2.89 µM and 3.41 µM

CCc1c2c(nc3ccc(O)cc13)-c1cc3c(c(=O)n1C2)COC(=O)[C@]3(O)CC
viability, T/C (compound 0.00316 µM): 17% and 30.3% and 19.5%
viability, T/C (compound 0.01 µM): 6.95% and 12.2% and 10.6%
viability, T/C (compound 0.0316 µM): 5.85% and 6.99% and 4.96%
viability, T/C (compound 0.1 µM): 3.9% and 5.58% and 5.13%
viability, T/C (compound 0.316 µM): 3.05% and 4.94% and 3.67%
viability, T/C (compound 1 µM): 1.76% and 2.96% and 1.2%
IC50 (curve of compound): < 0.00316 µM

COc1cc2cc(C(=O)CCC(=O)O)sc2cc1OC
viability, T/C (compound 0.0316 µM): 75.1% and 90.9% and 96.1%
viability, T/C (compound 0.1 µM): 84.1% and 72% and 94.5%
viability, T/C (compound 0.316 µM): 85.4% and 111% and 76.8%
viability, T/C (compound 1 µM): 88.2% and 64.1% and 113%
viability, T/C (compound 3.16 µM): 96% and 104% and 75.2%
viability, T/C (compound 10 µM): 95.3% and 89.2% and 61.4%
IC50 (curve of compound): > 10 µM

COc1ccc([C@@H](O)c2cc(-c3ncnc4cc(N5CCOCC5)ccc34)c(F)cc2Cl)nn1 + COC1C(OC(N)=O)C(O)C(Oc2ccc3c(O)c(NC(=O)c4ccc(O)c(CC=C(C)C)c4)c(=O)oc3c2C)OC1(C)C
IC50 [1]: 4.18 µM
IC50 [2]: 2.2 µM
IC50 [3]: 4.88 µM
IC50 [4]: 6.13 µM
IC50 [5]: 7.07 µM
IC50 [6]: 9.07 µM
viability, T/C [7]: 101%
viability, T/C [8]: 83%
viability, T/C [9]: 83.5%
viability, T/C [10]: 78.8%
viability, T/C [11]: 49.4%
viability, T/C [12]: 36.5%
viability, T/C [13]: 107%
viability, T/C [14]: 74.5%
viability, T/C [15]: 93%
viability, T/C [16]: 73.5%
viability, T/C [17]: 36.7%
viability, T/C [18]: 41.8%
viability, T/C [19]: 93.3%
viability, T/C [20]: 107%
viability, T/C [21]: 85.8%
viability, T/C [22]: 64%
viability, T/C [23]: 62.3%
viability, T/C [24]: 39.6%
viability, T/C [25]: 128%
viability, T/C [26]: 90.6%
viability, T/C [27]: 70.6%
viability, T/C [28]: 68.7%
viability, T/C [29]: 76%
viability, T/C [30]: 39.5%
viability, T/C [31]: 91.7%
viability, T/C [32]: 88.7%
viability, T/C [33]: 96.1%
viability, T/C [34]: 70.5%
viability, T/C [35]: 62.6%
viability, T/C [36]: 44.9%
viability, T/C [37]: 103%
viability, T/C [38]: 90.4%
viability, T/C [39]: 71.9%
viability, T/C [40]: 65.5%
viability, T/C [41]: 60%
viability, T/C [42]: 47.4%
